# Test results taken from patent US4975447A, “6-hydroxyethoxy-2-benzothiazolesulfonamide and topical treatment compositions and method for glaucoma” (University of Iowa Research Foundation, priority 1985, dated 1990).
# Where “and” joins values, the source holds several entries; their conditions need not be identical. Equal values may be shown once.
# How the values were obtained:
# [1] = system: eyes of rabbits (intraocular pressure); assay: Measurement of intraocular pressure ("Salted Rabbit Test"), applanation tonometry, topical 1% suspension; type: in vivo; settings: for Ave. change in IOP: 50 μl of 1% suspension q 2 min x 3
# Procedure: ("Salted Rabbit Test") (IOP)
# Rabbits (3-4 months old) were maintained on […] solution in place of drinking water for 3 weeks prior to the determination of IOP because it has been shown that a diet deficient in sodium produces a variable response to this class of drugs. During this 3 week period numerous IOP measurements were made to familiarize the rabbits with this procedure. Baseline IOP measurements were determined by applanation tonometry following topical administration of 3 drops of 1% suspension of analog CAI inhibitor to one eye. The fellow eye received blank vehicle. The observer was masked. Each eye received 1 to 2 drops of proparacaine hydrochloride (0.5%) to anethetize the cornea prior to placing the sensor tip of the tonometer flot on the cornea. IOP measurements were determined over 180 minutes at 20 minute intervals. Changes in IOP were expressed as:
# IOP change=IOP (dosed eye - control eye)t -IOP (dosed eye prior to
# administration - control eye)t=O
# Intraocular pressure (IOP) measurements of 6-hydroxyethoxy-2-benzothiazole sulfonamide in rabbits^a maintained on 3% sodium chloride drinking water following topical instillation.^b,c
# ^b The dose was 50 μl of a 1% suspension q 2 minutes for a total of 3 doses
# [2] = system: normal eyes of cynomologous monkeys (intraocular pressure); assay: Intraocular pressure by pneumatonometry, normal left eye (OS); type: in vivo, cynomologous monkey
# Source text: (§1) Because there are certain differences in the eyes of rabbits and man, it was desired to test topical carbonic anhydrase inhibition by the compound of the present invention in a subhuman primate species to confirm the presence of activity by this route. The cynomologous monkey was chosen to represent the species. Because drug effects on intraocular pressure are sometimes less dramatic or not demonstrable using an eye that is normotensive, a test protocol known as the "DeSantis" test was developed. It involves testing the carbonic anhydrase inhibitor effects in eyes made hypertensive by laser treatment. […] After the eye was allowed to recover from the inflammatory process which accompanied the laser treatment, it was used to test the subject drugs.
# (§2) Intraocular pressure (IOP) was determined using an Alcon Pneumatonograph after light corneal anesthesia with proparacaine, before and at 1, 3 and 7 hours after installation of drug to both eyes of each of six cynomologous monkeys per group. […] Animals were trained to sit in restraint chairs and to accept the pressure measurement. Following the measurement, residual anesthetic was washed out with saline.
# (§3) Data for the intraocular pressure studies are presented in the attached tables, where the lasered eyes but not the normal eyes show significant reduction of intraocular pressure compared to control animals.
# (§4) In the tables below "OD" refers to ocular dexter, and "OS" refers to ocular sinnister. This is simply another way of saying right and left eye. The designation number in the lefthand column of each table refers to the designation number assigned to each monkey. "SE" refers to standard error.
# [3] = system: lasered eyes of cynomologous monkeys (intraocular pressure); assay: Intraocular pressure by pneumatonometry, "DeSantis" test, laser-treated hypertensive right eye (OD); type: in vivo, cynomologous monkey; settings: for IOP (individual monkey) / Mean IOP / Mean % change of IOP / Mean % change of IOP versus control: OD (lasered)
# Source text: as §1, §2, §3, §4
# [4] = Table 1, 1.0% gel, 0 hr (before drug)
# [5] = Table 2 (six days later), 1.0% gel, 0 hr (before drug)
# [6] = Table 2 (six days later), 1.0% gel, 3 hr
# [7] = Table 2 (six days later), 1.0% gel, 7 hr
# [8] = Table 3, 3.0% gel, 0 hr (before drug)
# [9] = Table 4, 3.0% gel, 0 hr (before drug)
# [10] = Table 4, 3.0% gel, 0 hr (before drug), listed as 6-Hydroxyethoxy-2-benzothiazolesulfomaide
# [11] = Table 4, 3.0% gel, 1 hr, listed as 6-Hydroxyethoxy-2-benzothiazolesulfomaide
# [12] = Table 4, 3.0% gel, 3 hr, listed as 6-Hydroxyethoxy-2-benzothiazolesulfomaide
# [13] = Table 4, 3.0% gel, 7 hr, listed as 6-Hydroxyethoxy-2-benzothiazolesulfomaide
compound,measurement,setting,value
NS(=O)(=O)c1nc2ccc(OCCO)cc2s1 [6-hydroxyethoxy-2-benzothiazolesulfonamide],Ave. change in IOP,"[1]; 20 min after dosing, N=12, probability N.S.",-0.2 mm Hg
same,Ave. change in IOP,"[1]; 40 min after dosing, N=12, probability 0.07",-1.1 mm Hg
same,Ave. change in IOP,"[1]; 60 min after dosing, N=12, probability 0.04",-1.1 mm Hg
same,Ave. change in IOP,"[1]; 80 min after dosing, N=12, probability 0.12",-0.8 mm Hg
same,Ave. change in IOP,"[1]; 100 min after dosing, N=12, probability 0.04",-1.2 mm Hg
same,Ave. change in IOP,"[1]; 120 min after dosing, N=12, probability N.S.",-0.5 mm Hg
same,Ave. change in IOP,"[1]; 140 min after dosing, N=12, probability N.S.",0.2 mm Hg
same,Ave. change in IOP,"[1]; 160 min after dosing, N=12, probability N.S.",0.3 mm Hg
same,Ave. change in IOP,"[1]; 180 min after dosing, N=12, probability N.S.",-0.2 mm Hg
same,effectiveness for topical treatment of glaucoma (in words),[1]; rabbits,an effective treating composition for topical treatment of glaucoma
same,Ave. change in IOP,"[1]; time 0 (baseline), N=12 rabbits",0 mm Hg
same,IOP (individual monkey),[2]; [4],33 mmHg and 19 mmHg and 24 mmHg and 23 mmHg and 20 mmHg
same,Mean IOP,[2]; [4],25.3 mmHg
same,IOP (individual monkey),"[2]; Table 1, 1.0% gel, 3 hr",34 mmHg and 20 mmHg and 25 mmHg and 19 mmHg and 38 mmHg
same,Mean % change of IOP,"[2]; Table 1, 1.0% gel, 3 hr",+5.2%
same,Mean IOP,"[2]; Table 1, 1.0% gel, 3 hr",26.8 mmHg
same,IOP (individual monkey),"[2]; Table 1, 1.0% gel, 7 hr",34 mmHg and 25 mmHg and 28 mmHg and 22 mmHg and 19 mmHg and 41 mmHg
same,Mean % change of IOP,"[2]; Table 1, 1.0% gel, 7 hr",+11.1%
same,Mean IOP,"[2]; Table 1, 1.0% gel, 7 hr",28.2 mmHg
same,IOP (individual monkey),[2]; [5],30 mmHg and 22 mmHg and 25 mmHg and 27 mmHg and 24 mmHg
same,Mean IOP,[2]; [5],25.0 mmHg
same,IOP (individual monkey),[2]; [6],29 mmHg and 23 mmHg and 26 mmHg and 27 mmHg and 24 mmHg
same,Mean % change of IOP,[2]; [6],+1.9%
same,Mean IOP,[2]; [6],25.3 mmHg
same,IOP (individual monkey),[2]; [7],27 mmHg and 23 mmHg and 28 mmHg and 24 mmHg
same,Mean % change of IOP,[2]; [7],+5.2%
same,Mean IOP,[2]; [7],26.0 mmHg
same,IOP (individual monkey),[2]; [8],27 mmHg and 24 mmHg and 22 mmHg and 26 mmHg and 30 mmHg
same,Mean IOP,[2]; [8],25.5 mmHg
same,IOP (individual monkey),"[2]; Table 3, 3.0% gel, 1 hr",25 mmHg and 29 mmHg and 24 mmHg and 30 mmHg
same,Mean % change of IOP,"[2]; Table 3, 3.0% gel, 1 hr",+1.7%
same,Mean IOP,"[2]; Table 3, 3.0% gel, 1 hr",26.0 mmHg
same,IOP (individual monkey),"[2]; Table 3, 3.0% gel, 3 hr",23 mmHg and 27 mmHg and 28 mmHg and 25 mmHg
same,Mean % change of IOP,"[2]; Table 3, 3.0% gel, 3 hr",-0.4%
same,Mean IOP,"[2]; Table 3, 3.0% gel, 3 hr",25.2 mmHg
same,IOP (individual monkey),"[2]; Table 3, 3.0% gel, 7 hr",23 mmHg and 25 mmHg and 20 mmHg and 29 mmHg and 26 mmHg
same,Mean % change of IOP,"[2]; Table 3, 3.0% gel, 7 hr",-0.6%
same,Mean IOP,"[2]; Table 3, 3.0% gel, 7 hr",25.3 mmHg
same,Mean % change of IOP,[2]; [9],0.0%
same,Mean IOP,[2]; [9],23.3 mmHg
same,IOP (individual monkey),[2]; [10],24 mmHg and 20 mmHg and 18 mmHg and 30 mmHg and 21 mmHg and 27 mmHg
same,Mean % change of IOP,"[2]; Table 4, 3.0% gel, 1 hr",3.3%
same,Mean IOP,"[2]; Table 4, 3.0% gel, 1 hr",23.8 mmHg
same,IOP (individual monkey),[2]; [11],25 mmHg and 16 mmHg and 23 mmHg and 28 mmHg and 24 mmHg and 27 mmHg
same,Mean % change of IOP,"[2]; Table 4, 3.0% gel, 3 hr",-1.8%
same,Mean IOP,"[2]; Table 4, 3.0% gel, 3 hr",22.7 mmHg
same,IOP (individual monkey),[2]; [12],27 mmHg and 18 mmHg and 20 mmHg and 25 mmHg and 21 mmHg
same,Mean % change of IOP,"[2]; Table 4, 3.0% gel, 7 hr",5.5%
same,Mean IOP,"[2]; Table 4, 3.0% gel, 7 hr",24.3 mmHg
same,IOP (individual monkey),[2]; [13],28 mmHg and 20 mmHg and 23 mmHg and 27 mmHg
same,IOP (individual monkey),[3]; [4],28 mmHg and 46 mmHg and 35 mmHg and 48 mmHg and 38 mmHg and 25 mmHg
same,Mean IOP,[3]; [4],36.7 mmHg
same,IOP (individual monkey),"[3]; Table 1, 1.0% gel, 3 hr",23 mmHg and 36 mmHg and 30 mmHg and 40 mmHg and 34 mmHg
same,Mean % change of IOP,"[3]; Table 1, 1.0% gel, 3 hr",-14.9%
same,Mean IOP,"[3]; Table 1, 1.0% gel, 3 hr",31.0 mmHg
same,IOP (individual monkey),"[3]; Table 1, 1.0% gel, 7 hr",24 mmHg and 46 mmHg and 33 mmHg and 41 mmHg and 34 mmHg and 25 mmHg
same,Mean % change of IOP,"[3]; Table 1, 1.0% gel, 7 hr",-7.5%
same,Mean IOP,"[3]; Table 1, 1.0% gel, 7 hr",33.8 mmHg
same,IOP (individual monkey),[3]; [5],51 mmHg and 52 mmHg and 34 mmHg and 38 mmHg and 28 mmHg and 30 mmHg
same,Mean IOP,[3]; [5],38.8 mmHg
same,IOP (individual monkey),[3]; [6],38 mmHg and 50 mmHg and 29 mmHg and 35 mmHg and 27 mmHg and 26 mmHg
same,Mean % change of IOP,[3]; [6],-11.5%
same,Mean IOP,[3]; [6],34.2 mmHg
same,IOP (individual monkey),[3]; [7],36 mmHg and 48 mmHg and 28 mmHg and 37 mmHg and 24 mmHg and 32 mmHg
same,Mean % change of IOP,[3]; [7],-10.8%
same,Mean IOP,[3]; [7],34.2 mmHg
same,IOP (individual monkey),[3]; [8],50 mmHg and 35 mmHg and 33 mmHg and 55 mmHg and 40 mmHg and 44 mmHg
same,Mean IOP,[3]; [8],42.8 mmHg
same,IOP (individual monkey),"[3]; Table 3, 3.0% gel, 1 hr",45 mmHg and 33 mmHg and 30 mmHg and 52 mmHg and 35 mmHg and 50 mmHg
same,Mean % change of IOP versus control,"[3]; Table 3, 3.0% gel, 1 hr",-4.9%
same,Mean IOP,"[3]; Table 3, 3.0% gel, 1 hr",40.8 mmHg
same,IOP (individual monkey),"[3]; Table 3, 3.0% gel, 3 hr",41 mmHg and 20 mmHg and 30 mmHg and 57 mmHg and 32 mmHg and 45 mmHg
same,Mean % change of IOP versus control,"[3]; Table 3, 3.0% gel, 3 hr",-14.0%
same,Mean IOP,"[3]; Table 3, 3.0% gel, 3 hr",37.5 mmHg
same,IOP (individual monkey),"[3]; Table 3, 3.0% gel, 7 hr",37 mmHg and 23 mmHg and 25 mmHg and 55 mmHg and 33 mmHg and 40 mmHg
same,Mean % change of IOP versus control,"[3]; Table 3, 3.0% gel, 7 hr",-18.5%
same,Mean IOP,"[3]; Table 3, 3.0% gel, 7 hr",35.5 mmHg
same,Mean % change of IOP,[3]; [9],0.0%
same,Mean IOP,[3]; [9],44.7 mmHg
same,IOP (individual monkey),[3]; [10],38 mmHg and 55 mmHg and 37 mmHg and 42 mmHg and 50 mmHg and 46 mmHg
same,Mean % change of IOP,"[3]; Table 4, 3.0% gel, 1 hr",-10.1%
same,Mean IOP,"[3]; Table 4, 3.0% gel, 1 hr",40.3 mmHg
same,IOP (individual monkey),[3]; [11],37 mmHg and 50 mmHg and 32 mmHg and 30 mmHg and 53 mmHg and 40 mmHg
same,Mean % change of IOP,"[3]; Table 4, 3.0% gel, 3 hr",-15.0%
same,Mean IOP,"[3]; Table 4, 3.0% gel, 3 hr",38.3 mmHg
same,IOP (individual monkey),[3]; [12],33 mmHg and 47 mmHg and 29 mmHg and 21 mmHg and 45 mmHg and 55 mmHg
same,Mean % change of IOP,"[3]; Table 4, 3.0% gel, 7 hr",-16.8%
same,Mean IOP,"[3]; Table 4, 3.0% gel, 7 hr",37.2 mmHg
same,IOP (individual monkey),[3]; [13],35 mmHg and 55 mmHg and 28 mmHg and 38 mmHg and 32 mmHg
same,effectiveness for topical treatment of glaucoma (in words),[3]; cynomologous monkeys,an effective treating composition for topical treatment of glaucoma
